Results as given in patent US8124582B2, “Treatment of diabetes” (FibroGen, Inc., priority 2002, dated 2012).

How the values were obtained:
[1] = system: inducible nitric oxide synthase (iNOS); assay: In vivo iNOS mRNA expression (quantitative PCR); design: species or system Swiss Webster male mice; details: mice, FIG. 10A
Experimental: (§1) To determine gene induction patterns over time, twenty four Swiss Webster male mice (30-32 g) were obtained from Simonsen, Inc. and treated by oral gavage with a 4 ml/kg volume of either 0.5% carboxymethyl cellulose (CMC; Sigma-Aldrich, St. Louis Mo.) (0 mg/kg/day) or […] compound B (25 mg/ml in 0.5% CMC) (100 mg/kg). At 4, 8, 16, 24, 48, or 72 hours after the final dose, animals were anesthetized with isoflurane. The mice were then sacrificed and tissue samples of kidney, liver, brain, lung, and heart were isolated and stored in RNALATER solution (Ambion) at −80° C.
To investigate the dose response of compounds of the present invention, twelve Swiss Webster male mice (30-32 g) (obtained from Simonsen, Inc., Gilroy Calif.) were treated by oral gavage once per day for 4 days with a 4 ml/kg volume of either 0.5% carboxymethyl cellulose (CMC; Sigma-Aldrich, St. Louis Mo.), compound D (25 mg/ml in 0.5% CMC) (100 mg/kg/day), or compound B (7.5 and 25 mg/ml in 0.5% CMC) (30 and 100 mg/kg/day, respectively). Four hours after the final dose, animals were anesthetized, sacrificed, and approximately 150 mg of liver and each kidney were isolated and stored in RNALATER solution (Ambion) at −20° C.
Hypertension is a risk factor for diabetes and disorders and diseases associated with diabetes. The effects of compounds of the present invention on regulation of blood pressure were examined as follows. Animals were treated with compound B or compound D and RNA samples were prepared as described above in Example 4. […] Analysis of the relative level of gene expression was performed by quantitative PCR using a FASTSTART DNA MASTER SYBR GREEN I kit (Roche) and gene-specific primers, using a LIGHTCYCLER system (Roche), according to manufacturer's instructions. […]
The relative level of 18S ribosomal RNA gene expression was measured as a control. Quantitative PCR was performed using a QUANTITECT SYBR GREEN PCR kit (Qiagen) and gene-specific primers, using a LIGHTCYCLER system (Roche), according to manufacturer's instructions. […]

adrenomedullin = assay: In vivo adrenomedullin mRNA expression (microarray); design: species or system Swiss Webster male mice; details: mice, heart, kidney, and lung
Experimental: as §1
For measurement of adrenomedullin mRNA expression, samples were prepared and were hybridized and analyzed as described above in Example 4.

HIF-1α = HIF-1α stabilization in cells, TRANSAM HIF-1 ELISA of nuclear fractions; type: cell-based, Human; details: epithelial cells (293A) and hepatocellular carcinoma (Hep3B); FIG. 12B
Experimental: Stabilization of HIFα using compounds and methods of the present invention was examined as follows. Human cells derived from adenovirus-transformed fetal kidney epithelium (293A), cervical epithelial adenocarcinoma (HeLa), hepatocellular carcinoma (Hep3B), squamous carcinoma (SSC-25), and lung fibroblast (HLF) (see, e.g., American Type Culture Collection, Manassas Va.; and Qbiogene, Carlsbad Calif.) were separately seeded into 100 mm culture dishes and grown at 37° C., 20% O2, 10% CO2 in media as follows: HeLa cells in Dulbecco's Modification of Eagle's Medium (DMEM), 2% fetal bovine serum (FBS); HLF cells in DMEM, 10%FBS; 293A cells in DMEM, 5%FBS; and Hep3B cells in Minimal Essential Medium (MEM), Earle's BSS (Mediatech Inc., Herndon Va.), 2 mM L-glutamine, 0.1 mM non-essential amino acids, 1 mM sodium pyruvate, 10% FBS. When cell layers reached confluence, the media was replaced with OPTI-MEM media (Invitrogen Life Technologies, Carlsbad Calif.) and cell layers were incubated for approximately 24 hours in 20% O2, 10% CO2 at 37° C. Compound of the invention (one of compounds B, F, G, and H) or DMSO (0.5 to 1%) was then added to existing medium, and incubation was continued overnight.
Alternatively, nuclear fractions were prepared using a Nuclear Extract kit (Active Motif, Carlsbad Calif.) and were analyzed for HIF-1α using a TRANSAM HIF-1 ELISA kit (Active Motif) according to the manufacturer's instructions.

O=C(O)CNC(=O)c1nc(Cl)c2ccccc2c1O [compound B, [(1-Chloro4-hydroxy-isoquinoline-3-carbonyl)-amino]-acetic acid]
dose dependence of iNOS induction ([1]; 30 and 100 mg/kg/day oral gavage): dose-dependent
expression of the gene encoding iNOS ([1]; oral gavage, within 8 hours following treatment, then returned to control levels, normalized to 18S rRNA): increased
expression of adrenomedullin (adrenomedullin; 100 mg/kg oral gavage, FIG. 10B): increased in various tissues
time within which adrenomedullin mRNA levels returned to control levels (adrenomedullin; time course): 16 to 24 h
HIFα stabilization and accumulation (ELISA) compared to vehicle-treated control cells (HIF-1α): stabilization and accumulation of HIFα
